Assay results published in patent US9981942B2, “Piperidine derivatives having multimodal activity against pain” (LABORATORIOS DEL DR. ESTEVE S.A., priority 2013, dated 2018).

Tested on: σ1 receptor and the μ-opiod receptor
Test: μ and σ1 dual binding: combined class from the Ki of both radioligand assays
Design: species or system human; key to μ and σ1 dual binding: +: Both Ki-μ and Ki-σ1>=500 nM; ++: One Ki<500 nM while the other Ki is >=500 nM; +++: Both Ki-μ and Ki-σ1<500 nM; ++++: Both Ki-μ and Ki-σ1<100 nM
Conditions: transfected HEK-293 membranes (σ1), transfected CHO-K1 cell membranes (μ); for μ and σ1 dual binding: combined class for Ki-μ and Ki-σ1
In short: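 Classes combine both Ki values, split at 500 nM and 100 nM. Human μ-opioid binding used 1 nM [3H]-DAMGO on CHO-K1 membranes (27 °C, 60 min, pH 7.4, naloxone 10 μM for NSB); human σ1 used 5 nM [3H](+)-pentazocine on HEK-293 membranes (37 °C, 120 min, pH 8, haloperidol 10 μM for NSB).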

Row | Compound | μ and σ1 dual binding | Ki range for both μ and σ1 (dual-binding class)
1 | CC(=O)Nc1nc2ccc(C3CCN(Cc4cn(-c5ccccc5)nn4)CC3)cc2s1 [Example 74, N-(6-(1-((1-phenyl-1H-1-1,2,3-triazol-4-yl)methyl)piperidin-4-yl)benzo[d]thiazol-2-yl)acetamide] | ++ | –
2 | CC(c1ccccn1)n1cc(CN2CCC(c3cccc(O)c3)CC2)nn1 (stereo not drawn) [Example 75, 3-(1-((1-(1-(pyridin-2-yl)ethyl)-1H-1,2,3-triazol-4-yl)methyl)piperidin-4-yl)phenol] | – | < 500 nM
3 | CC(c1ccccc1)n1cc(CN2CCC(c3cccc(NS(C)(=O)=O)c3)CC2)nn1 (stereo not drawn) [Example 76, N-(3-(1-((1-(1-phenylethyl)-1H-1,2,3-triazol-4-yl)methyl)piperidin-4-yl)phenyl)methanesulfonamide] | – | < 500 nM
4 | Oc1cccc(C2CCN(Cc3cn([C@@H]4c5ccccc5C[C@H]4O)nn3)CC2)c1 [Example 78, (1R,2R)-1-(4-((4-(3-hydroxyphenyl)piperidin-1-yl)methyl)-1H-1,2,3-triazol-1-yl)-2,3-dihydro-1H-inden-2-ol] | – | < 500 nM
5 | CC(C)S(=O)(=O)Nc1cccc(C2CCN(Cc3cn(Cc4ccccc4)nn3)CC2)c1 [Example 79, N-(3-(1-((1-benzyl-1H-1,2,3-triazol-4-yl)methyl)piperidin-4-yl)phenyl)propane-2-sulfonamide] | – | < 500 nM
6 | CC(C)S(=O)(=O)Nc1cccc(C2CCN(Cc3cn(Cc4ccccn4)nn3)CC2)c1 [Example 81, N-(3-(1-((1-(pyridin-2-ylmethyl)-1H-1,2,3-triazol-4-yl)methyl)piperidin-4-yl)phenyl)propane-2-sulfonamide] | ++ | –
7 | Oc1cccc(C2CCN(Cc3cn([C@H]4CC[C@@H](C(F)(F)F)CC4)nn3)CC2)c1 [Example 82, 3-(1-((1-((1s,4s)-4-(trifluoromethyl)cyclohexyl)-1H-1,2,3-triazol-4-yl)methyl)piperidin-4-yl)phenol] | – | < 100 nM
8 | Oc1cccc(C2CCN(Cc3cn([C@H]4CC[C@H](C(F)(F)F)CC4)nn3)CC2)c1 [Example 83, 3-(1-((1-((1r,4r)-4-(trifluoromethyl)cyclohexyl)-1H-1,2,3-triazol-4-yl)methyl)piperidin-4-yl)phenol] | – | < 100 nM
9 | Oc1cccc(C2CCN(Cc3cn(-c4ccccn4)nn3)CC2)c1 [Example 84, 3-(1-((1-(pyridin-2-yl)-1H-1,2,3-triazol-4-yl)methyl)piperidin-4-yl)phenol] | – | < 100 nM
10 | c1ccc(-n2cc(CN3CCC(c4cccc(-c5nnn[nH]5)c4)CC3)nn2)cc1 [Example 85, 4-(3-(1H-tetrazol-5-yl)phenyl)-1-((1-phenyl-1H-1,2,3-triazol-4-yl)methyl)piperidine] | – | ≥ 500 nM
11 | CC(c1ccccn1)n1cc(CN2CCC(c3cccc(NS(C)(=O)=O)c3)CC2)nn1 (stereo not drawn) [Example 86, N-(3-(1-((1-(1-(pyridin-2-yl)ethyl)-1H-1,2,3-triazol-4-yl)methyl)piperidin-4-yl)phenyl)methanesulfonamide] | ++ | –
12 | CS(=O)(=O)Nc1ccc(F)c(C2CCN(Cc3cn(Cc4ccccc4)nn3)CC2)c1 [Example 87, N-(3-(1-((1-benzyl-1H-1,2,3-triazol-4-yl)methyl)piperidin-4-yl)-4-fluorophenyl)methanesulfonamide] | – | < 500 nM
13 | Oc1cccc(C2CCN(Cc3cn([C@@H]4c5ccccc5C[C@@H]4O)nn3)CC2)c1 [Example 88, (1R,2S)-1-(4-((4-(3-hydroxyphenyl)piperidin-1-yl)methyl)-1H-1,2,3-triazol-1-yl)-2,3-dihydro-1H-inden-2-ol] | – | < 500 nM
14 | Oc1cccc(C2CCN(Cc3cn(-c4coc5ccccc45)nn3)CC2)c1 [Example 89, 3-(1-((1-(benzofuran-3-yl)-1H-1,2,3-triazol-4-yl)methyl)piperidin-4-yl)phenol] | – | < 100 nM
15 | CS(=O)(=O)Nc1cc(C2CCN(Cc3cn(Cc4ccccc4)nn3)CC2)ccc1F [Example 90, N-(5-(1-((1-benzyl-1H-1,2,3-triazol-4-yl)methyl)piperidin-4-yl)-2-fluorophenyl)methanesulfonamide] | ++ | –
16 | CS(=O)(=O)Nc1cccc(C2CCN(Cc3cn([C@H]4c5ccccc5C[C@@H]4O)nn3)CC2)c1 [Example 91, N-(3-(1-((1-((1S,2S)-2-hydroxy-2,3-dihydro-1H-inden-1-yl)-1H-1,2,3-triazol-4-yl)methyl)piperidin-4-yl)phenyl)methanesulfonamide] | ++ | –
17 | CS(=O)(=O)Nc1cccc(C2CCN(Cc3cn([C@@H]4c5ccccc5C[C@H]4O)nn3)CC2)c1 [Example 92, N-(3-(1-((1-((1R,2R)-2-hydroxy-2,3-dihydro-1H-inden-1-yl)-1H-1,2,3-triazol-4-yl)methyl)piperidin-4-yl)phenyl)methanesulfonamide] | – | < 500 nM

Row | Compound | μ and σ1 dual binding | Ki range for both μ and σ1 (dual-binding class)
18 | Nc1cccc(C2CCN(Cc3cn(-c4ccccc4)nn3)CC2)c1 [Example 94, 3-(1-((1-phenyl-1H-1,2,3-triazol-4-yl)methyl)piperidin-4-yl)aniline] | – | < 100 nM
19 | CC1(n2cc(CN3CCC(c4cccc(O)c4)CC3)nn2)C(=O)Nc2ccccc21 (stereo not drawn) [Example 95, 3-(4-((4-(3-hydroxyphenyl)piperidin-1-yl)methyl)-1H-1,2,3-triazol-1-yl)-3-methylindolin-2-one] | ++ | –
20 | Oc1cccc(C2CCN(Cc3cn([C@@H]4Cc5ccccc5[C@@H]4O)nn3)CC2)c1 [Example 96, (1S,2R)-2-(4-((4-(3-hydroxyphenyl)piperidin-1-yl)methyl)-1H-1,2,3-triazol-1-yl)-2,3-dihydro-1H-inden-1-ol] | – | < 500 nM
21 | CS(=O)(=O)Nc1cccc(C2CCN(Cc3cn([C@@H]4Cc5ccccc5[C@@H]4O)nn3)CC2)c1 [Example 97, N-(3-(1-((1-((1S,2R)-1-hydroxy-2,3-dihydro-1H-inden-2-yl)-1H-1,2,3-triazol-4-yl)methyl)piperidin-4-yl)phenyl)methanesulfonamide] | ++ | –
22 | CS(=O)(=O)Nc1cccc(C2CCN(Cc3cn(Cc4ccccn4)nn3)CC2)c1 [Example 98, N-(3-(1-((1-(pyridin-2-ylmethyl)-1H-1,2,3-triazol-4-yl)methyl)piperidin-4-yl)phenyl)methanesulfonamide] | ++ | –
23 | CS(=O)(=O)Nc1cccc(C2CCN(Cc3cn(Cc4cccnc4)nn3)CC2)c1 [Example 99, N-(3-(1-((1-(pyridin-3-ylmethyl)-1H-1,2,3-triazol-4-yl)methyl)piperidin-4-yl)phenyl)methanesulfonamide] | ++ | –
24 | CS(=O)(=O)Nc1cccc(C2CCN(Cc3cn([C@@H]4Cc5ccccc5[C@H]4O)nn3)CC2)c1 [Example 100, N-(3-(1-((1-((1R,2R)-1-hydroxy-2,3-dihydro-1H-inden-2-yl)-1H-1,2,3-triazol-4-yl)methyl)piperidin-4-yl)phenyl)methanesulfonamide] | ++ | –
25 | COc1c(NS(C)(=O)=O)cccc1C1CCN(Cc2cn(-c3ccccc3)nn2)CC1 [Example 101, N-(2-methoxy-3-(1-((1-phenyl-1H-1,2,3-triazol-4-yl)methyl)piperidin-4-yl)phenyl)methanesulfonamide] | – | < 500 nM
26 | COc1c(NS(C)(=O)=O)cccc1C1CCN(Cc2cn(Cc3ccccc3)nn2)CC1 [Example 102, N-(3-(1-((1-benzyl-1H-1,2,3-triazol-4-yl)methyl)piperidin-4-yl)-2-methoxyphenyl)methanesulfonamide] | ++ | –
27 | CCC(=O)Nc1cccc(C2CCN(Cc3cn(Cc4ccccn4)nn3)CC2)c1 [Example 103, N-(3-(1-((1-(pyridin-2-ylmethyl)-1H-1,2,3-triazol-4-yl)methyl)piperidin-4-yl)phenyl)propionamide] | ++ | –
28 | CC(C)S(=O)(=O)Nc1cccc(C2CCN(Cc3cn([C@@H]4c5ccccc5C[C@H]4O)nn3)CC2)c1 [Example 104, N-(3-(1-((1-((1R,2R)-2-hydroxy-2,3-dihydro-1H-inden-1-yl)-1H-1,2,3-triazol-4-yl)methyl)piperidin-4-yl)phenyl)propane-2-sulfonamide] | ++ | –
29 | CC(C)S(=O)(=O)Nc1cccc(C2CCN(Cc3cn([C@H]4c5ccccc5C[C@@H]4O)nn3)CC2)c1 [Example 105, N-(3-(1-((1-((1S,2S)-2-hydroxy-2,3-dihydro-1H-inden-1-yl)-1H-1,2,3-triazol-4-yl)methyl)piperidin-4-yl)phenyl)propane-2-sulfonamide] | ++ | –
30 | CC(C)(O)COc1ccc(-n2cc(CN3CCC(c4cccc(O)c4)CC3)nn2)cc1 [Example 106, 3-(1-((1-(4-(2-hydroxy-2-methylpropoxy)phenyl)-1H-1,2,3-triazol-4-yl)methyl)piperidin-4-yl)phenol] | ++ | –
31 | Oc1ccc(-n2cc(CN3CCC(c4cccc(O)c4)CC3)nn2)cc1 [Example 107, 3-(1-((1-(4-hydroxyphenyl)-1H-1,2,3-triazol-4-yl)methyl)piperidin-4-yl)phenol] | – | < 100 nM
32 | CS(=O)(=O)Nc1cccc([C@@H]2CCN(Cc3cn(-c4ccccc4)nn3)C[C@@H]2O)c1 [Example 110, N-(3-((3R,4S)-3-hydroxy-1-((1-phenyl-1H-1,2,3-triazol-4-yl)methyl)piperidin-4-yl)phenyl)methanesulfonamide] | ++ | –
33 | CCNC(=O)Nc1cccc(C2CCN(Cc3cn(Cc4ccccn4)nn3)CC2)c1 [Example 111, 1-ethyl-3-(3-(1-((1-(pyridin-2-ylmethyl)-1H-1,2,3-triazol-4-yl)methyl)piperidin-4-yl)phenyl)urea] | – | ≥ 500 nM
